For 13 compounds, viability and inhibition results are on record in ChEMBL document CHEMBL3044967, “Synthesis, biological evaluation, and molecular modeling studies of new 1,3,4-oxadiazole- and 1,3,4-thiadiazole-substituted 4-oxo-4H-pyrido[1,2-a]pyrimidines as anti-HIV-1 agents” (Med Chem Res, 2013).

The structures appear in SMILES notation.

Series [1] can be described thus: Cytotoxicity against Homo sapiens (human) HeLa cells infected with HIV-1 NL4-3 assessed as cell viability at 100 uM by XTT assay. In kind it is cell-based. Conditions: read-out: Activity. A general note: Tetrazolium dyes change colour on reduction, which living cells bring about.
For series [2], the system named is Human immunodeficiency virus 1. Put plainly: Antiviral activity against Human immunodeficiency virus 1 NL4-3 infected human HeLa cells assessed as decrease in P24 expression at 100 uM after 72 hr by single cycle replication assay. Format: functional. Conditions: Human immunodeficiency virus 1, NL4-3, HeLa.

Broadly, the inhibition is the change of the read-out against control, counted positive when it falls. With `O=c1c(-c2nnc(-c3ccc(Cl)cc3)o2)cnc2ccccn12`, the viability at 100 µM in series [1] turned out to be 94%. The inhibition at 100 µM in series [2] was 26%. As to `Nc1nnc(-c2cnc3ccccn3c2=O)o1`, in series [1], the viability at 100 µM was 96%. As to `O=c1c(-c2nnc(S)o2)cnc2ccccn12`, the viability at 100 µM in series [1] was found to be 100%. For the same compound, the inhibition at 100 µM in series [2] is 11%.

In the case of `O=c1c(-c2nnc(-c3ccccc3)o2)cnc2ccccn12`, the viability at 100 µM in series [1] stood at 98%. `O=c1c(-c2nnc(-c3ccc(F)cc3)o2)cnc2ccccn12`: the viability at 100 µM in series [1] was 100%. Besides, in series [2], the inhibition at 100 µM turned out to be 18%. For the compound `COc1ccc(-c2nnc(-c3cnc4ccccn4c3=O)o2)cc1`, the viability at 100 µM in series [1] is 100%. For `Cc1ccc(-c2nnc(-c3cnc4ccccn4c3=O)o2)cc1`, in series [1], the viability at 100 µM was found to be 94%. The inhibition at 100 µM in series [2] amounted to 29%. For `O=c1c(-c2nnc(-c3ccccc3)s2)cnc2ccccn12`, in that order: 100% and 33%. For `O=c1c(-c2nnc(-c3ccc(F)cc3)s2)cnc2ccccn12`, in that order: 92% and 48%. On to `O=c1c(-c2nnc(-c3ccc(Cl)cc3)s2)cnc2ccccn12`, for which, in series [1], the viability at 100 µM is 95%. The inhibition at 100 µM in series [2] was 39%.

Consider `COc1ccc(-c2nnc(-c3cnc4ccccn4c3=O)s2)cc1`, for which, in series [1], the viability at 100 µM was determined as 97%. The inhibition at 100 µM in series [2] was 28%.

Regarding `Cc1ccc(-c2nnc(-c3cnc4ccccn4c3=O)s2)cc1`, in series [1], the viability at 100 µM is 93%. Moreover, the inhibition at 100 µM in series [2] turned out to be 51%. Consider `Cc1cn([C@H]2C[C@H](N=[N+]=[N-])[C@@H](CO)O2)c(=O)[nH]c1=O` [ZIDOVUDINE], for which the viability at 100 µM in series [1] is 100%. In addition, the inhibition at 100 µM in series [2] is 100%.
